Data reported in PMC6651555, “Cathepsin L Inhibitors with Activity against the Liver Fluke Identified From a Focus Library of Quinoxaline 1,4-di-N-Oxide Derivatives” (Molecules, 2019).
Entries after “also recorded” stand apart in the source; their conditions may differ.

What was measured:
FhCL1 [1] = biological target: T1, FhCL1 (Fasciola hepatica, UniProt Q7JNQ9); assay: FhCL1 inhibition screening, IC50 and slow-binding (fluorogenic substrate Z-VLK-AMC); type: biochemical; conditions: read-out: %Inh FhCL1, 10 µM compound, 20 min preincubation, relative to enzyme alone; SD less than 10%
T1 construct: made in house; host or cells: Hansenula polymorpha (yeast)
T1 sequence (Q7JNQ9 entry or part of it): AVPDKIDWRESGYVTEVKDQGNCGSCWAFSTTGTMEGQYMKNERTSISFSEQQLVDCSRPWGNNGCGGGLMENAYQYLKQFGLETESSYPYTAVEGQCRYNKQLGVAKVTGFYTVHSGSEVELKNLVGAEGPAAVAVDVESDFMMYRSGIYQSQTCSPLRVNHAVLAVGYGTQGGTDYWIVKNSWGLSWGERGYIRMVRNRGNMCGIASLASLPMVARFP
Procedure: (§1) Each compound was completely dissolved in dimethylsulfoxide (DMSO) to a concentration of 10 mM to prepare the stock solutions. To evaluate the inhibition of FhCL1 and FhCL3 by quinoxaline 1,4-di-N-oxide derivatives, nanomolar concentrations of each enzyme was incubated with compounds at 10 μM. Briefly, each enzyme and compound were preincubated 20 min in a 96-well plate in 0.1 M sodium phosphate buffer pH 6, 1 mM DTT, and 1 mM EDTA at room temperature. The reaction was initiated by adding 20 μM of substrate and enzyme activity was measured by the increase in aminomethyl coumarin (AMC) fluorescence as peptide substrates were hydrolyzed (Z-VLK-AMC for FhCL1 and Tos-GPR-AMC for FhCL3), at an excitation wavelength of 340 nm and emission wavelength of 440 nm using a spectrofluorometer (Varioskan Thermo, Waltham, MA, USA). Enzyme activity was expressed as RFU/s (relative fluorescence units of AMC released per second). Each compound was tested in triplicate. A control reaction without enzymes was performed to check for the occurrence of non-catalyzed reactions between substrates and inhibitors and a spectrum from 300 to 450 nm wavelength was done for each quinoxaline 1,4-di-N-oxide derivative to verify that none of them had optical activity in the measurement range. The percentage of enzyme inhibition was calculated as 100 − (vi/vo) × 100, where vi and vo correspond to the initial rate of AMC fluorescence increase (RFU/s) with and without inhibitor, respectively.
(§2) To calculate the IC50 values, compounds were incubated with each enzyme at seven different concentrations; 0.625, 1.25, 2.5, 5, 10, 20, and 40 μM. Then, the enzyme activity was measured in a 96-well plate as described before. We plotted initial rates (RFU/s) versus log10 of inhibitor concentrations and obtained the IC50 values by fitting the data to a sigmoid curve. We also carried out slow-binding assays to evaluate the time-dependence of the inhibition. Each compound was incubated at 10 μM with the enzyme for increasing lengths of time; 3 to 120 min and the percentage of inhibition at each time point was determined as described before. We calculated the inhibition percentage of the leader compounds at 10 μM for HsCL1. The enzyme was preincubated for 20 min with the compounds and the activity was measured in a 96-well plate in 400 mM sodium acetate, pH 5.5, with 4 mM EDTA, 8 mM DTT, and 20 μM of substrate Z-VLK-AMC. The percentage of enzyme inhibition was calculated as described for FhCL1 and FhCL3. We determined the IC50 value for C17 against HsCL by incubating the enzyme with four different concentrations of the compound 0, 10, 25, and 50 μM and measuring the activity as described before. We plotted initial rates (RFU/s) versus log10 of inhibitor concentration and obtained the IC50 value by fitting the data to a sigmoid curve.

FhCL1 [2] = biological target: T1, FhCL1; assay: as above; type: biochemical; conditions: 10 μM, preincubation 5 to 120 min
F. hepatica NEJ [3] = assay: In vitro culture of NEJ and treatment with inhibitors (motility score); type: cell-based, Fasciola hepatica; conditions: 50 μM compound, over 96 h
Procedure: F. hepatica metacercariae were acquired from Instituto Miguel C. Rubino (DILAVE, MGAP, Uruguay). NEJ were obtained by in vitro excystement as previously described with minor modifications. Briefly, metacercariae were incubated with 1% sodium hypochlorite for 5 min at room temperature to remove the outer cyst wall and then washed several times with PBS. Metacercariae activation was carried out in a medium prepared by mixing equal volumes of solution A (0.4% sodium taurocholate, 120 mM NaHCO3, 140 mM NaCl, pH 8.0) and solution B (50 mM HCl and 33 mM L-cysteine), and incubating at 39 °C until the NEJ begin to emerge (around 3–4 h). A 100 μm filter was used to retain the cyst wall. Collected NEJ were washed three times with RPMI-1640 supplemented with 200 U/mL Penicillin G sulfate, […] streptomycin sulfate, 500 ng/mL amphotericin B, 10 mM HEPES, counted and divided into groups of around 20 parasites that were transferred to 96 wells in tissue culture plates. Parasites were maintained at 37 °C, 5% CO2 in modified Basch’s medium. At day 1, each tested compound was added at a concentration of 50 μM in 0.5% DMSO. Also, 0.5% of DMSO was added to the control groups. Each condition was tested in duplicate. NEJ behavior was monitored under a light microscope (Olympus BX41, Hamburg, Germany), every day each well was recorded for a minute in order to assess parasite motility and registered using the following score: 3—normally active; 2—reduced activity (sporadic movement); 1—immotile (dead, adapted from). Control parasites were maintained in culture for seven days.

FhCL3 [4] = assay: FhCL3 inhibition screening, IC50 and slow-binding (fluorogenic substrate Tos-GPR-AMC); type: biochemical, Fasciola hepatica; conditions: 10 µM compound, 20 min preincubation, relative to enzyme alone; SD less than 10%
Procedure: as §1, §2

human cathepsin L (HsCL) = human cathepsin L (HsCL) (Homo sapiens, UniProt P07711); assay: Human cathepsin L (HsCL) inhibition, selectivity assessment; type: biochemical
human cathepsin L (HsCL), sequence (P07711 114-333): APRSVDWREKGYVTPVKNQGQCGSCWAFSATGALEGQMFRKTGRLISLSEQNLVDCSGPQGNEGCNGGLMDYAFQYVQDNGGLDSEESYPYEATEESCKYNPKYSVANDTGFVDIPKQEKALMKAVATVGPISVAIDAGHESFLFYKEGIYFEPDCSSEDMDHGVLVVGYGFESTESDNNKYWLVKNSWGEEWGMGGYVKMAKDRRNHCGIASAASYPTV
Procedure: as §2

HepG2 cell line = assay: Cytotoxicity on the HepG2 cell line (Sulforhodamin B); type: cell-based; conditions: Homo sapiens, 24 h incubation with compound
Procedure: (§3) Cytotoxicity studies on the HepG2 cell line. Cells: 1.5 × 10^4 cells per 96-well plate were cultured in 225 µL of DMEM medium, supplemented with L-glutamine (1%), penicillin/streptomycin (1%), and 10% (v/v) fetal bovine serum (FBS). The cultures were maintained at 37 °C and 5% CO2 for 48 h. Treatment: Compound solutions were prepared just before dosing. Stock solutions, […], were prepared in 100% DMSO (Aldrich, Saint Louis, MO, USA) and 25 µL of adequate dilution was added to each well 24 h after plating the cells. For each compound, a dose-response curve was done with five different compound concentrations: 6.25, 12.5, 25, 50, and 100 µM (treated cells, T). No effect on cell growth was observed by the presence of 0.5% DMSO in the culture media (control cells, C). Cells were incubated with the compounds for 24 h at 37 °C in 5% CO2 atmosphere, then the medium was discarded and the cells were washed with PBS. The cells were then fixed with 50 µL of TCA (50%) and 200 µL of culture medium (without FBS) for 1 h at 4 °C. Then the cells were washed with purified water and treated with Sulforhodamin B (0.4% wt/vol in 1% acetic acid) for 10 min at room temperature. The plates were then washed with 1% acetic acid and dried overnight. Finally, 100 µL of Tris buffer (pH = 10.0) was added and absorbance read at 540 nm. Data calculations: The assays were done in four replicates. At the end of the experiment, the cell survival percentage (SP) was calculated for each compound as (T/C) × 100. To determine the IC50, the SP of cells at each compound concentration was plotted and the data were fitted to a sigmoid curve. The standard error was not greater than 10% for any condition. For the cytotoxicity assay with bovine spermatozoa, semen samples were obtained from a healthy fertile Hereford bull and kept frozen in 0.5 mL straws (extended in Andromed, Minitube, Tiefenbach, Germany) under liquid nitrogen until use. The semen used belonged to a single freezing batch that was obtained during a regular collection schedule with an artificial vagina. Samples from three straws were thawed and a sperm pool was prepared in PBS at a concentration of 80 million spermatozoa per ml. Then, 50 μL of this pool was carefully mixed with 50 μL of each compound to be tested at a concentration of 50 µM or 1% DMSO in control experiments. Each compound was assayed in triplicate in 96-well plates and controls were assayed in triplicate. Plates were incubated at 37 °C for 1 h with moderate shaking. The motility analysis was carried out using a CASA (Computer Assisted Semen Analyzer) system Androvision (Minitube, Tiefenbach, Germany) with an Olympus BX 41 microscope (Olympus, Japan) equipped with a warm-stage at 37 °C. Each sample (10 μL) was placed onto a Makler Counting Chamber (depth 10 μm, Sefi-Medical Instruments, Haifa, Israel) and the following parameters were evaluated: percentage of total motile spermatozoa (motility >5 μm/s) and velocity curved line (VCL > 24 μm/s). At least 400 spermatozoa were analyzed from each sample from at least four microscope fields.

F. hepatica NEJ [5] = assay: In vitro culture of NEJ and treatment with inhibitors (motility score); type: cell-based; conditions: Fasciola hepatica; after 48 h of incubation with NEJ; read-out: IC50 against NEJ
bovine spermatozoa = assay: Cytotoxicity assay with bovine spermatozoa (CASA motility); type: cell-based; conditions: 50 µM, 1 h at 37 °C, relative to control sperm incubated with vehicle
Procedure: as §3

FhCL3 [6] = assay: FhCL3 inhibition screening, IC50 and slow-binding (fluorogenic substrate Tos-GPR-AMC); type: biochemical, Fasciola hepatica; conditions: 10 μM, preincubation 5 to 120 min

SMILES	inhibition at 10 µM (FhCL1 [1])	Time-dependence of FhCL1 inhibition (slow-binding) (FhCL1 [2])	Effect on NEJ motility / fasciolicide activity in vitro (F. hepatica NEJ [3])	%Inh FhCL3 (FhCL3 [4])	IC50 (human cathepsin L (HsCL); dose-response at 0, 10, 25 and 50 μM)	Selectivity index FhCL1 (human cathepsin L (HsCL); parasite enzyme FhCL1 over human cathepsin L)	Selectivity index FhCL3 (human cathepsin L (HsCL); parasite enzyme FhCL3 over human cathepsin L)	IC50 (HepG2 cell line)	IC50 (F. hepatica NEJ [5])	Sperm Motility RTC (relative to control) (bovine spermatozoa)	Time-dependence of FhCL3 inhibition (slow-binding) (FhCL3 [6])
N#Cc1c(N)[n+]([O-])c2ccc(/C=N/NC(=O)NCCc3ccccc3)cc2[n+]1[O-] [Compound C7]	90%	required short times to inhibit FhCL1 enzyme	did not have activity against the parasites; also recorded: did not have fasciolicidal activity	61%	–	–	–	–	–	–	–
C=CCNC(=S)N/N=C/c1ccc2c(c1)[n+]([O-])c(C(=O)OCC)c(-c1ccccc1)[n+]2[O-] [Compound C17]	≥ 80%	required short times to inhibit FhCL1 enzyme	progressive decrease of parasite motility starting between 24 and 96 h of culture; also recorded: strong fasciolicide activity in vitro	–	13 µM	9.3	2.6	48 ± 0.3 µM	25.1 µM	81 ± 3	–
CCOC(=O)c1c(-c2ccccc2)[n+]([O-])c2ccc(CN3CCN(C/C=C/c4ccccc4)CC3)cc2[n+]1[O-] [Compound C18]	55%	–	progressive decrease of parasite motility starting between 24 and 96 h of culture; also recorded: strong fasciolicide activity in vitro	61%	–	–	–	< 6.2 µM	–	82 ± 2	reached high inhibition of FhCL3 within a few minutes of incubation
C=CCNC(=S)N/N=C/c1ccc2c(c1)[n+]([O-])c(-c1ccccc1)c(C(=O)Nc1ccccc1)[n+]2[O-] [Compound C23]	≥ 80%	required short times to inhibit FhCL1 enzyme	slightly affected parasite motility; also recorded: did not have fasciolicidal activity	–	–	–	–	12 ± 0.2 µM	–	82 ± 1	reached high inhibition of FhCL3 within a few minutes of incubation
